Values joined by “and” are separate entries in the source; they are usually repeats but may differ in a detail not shown here. Identical values can stand only once. Active and inactive are the calls of the source.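 The calls were made as follows: active = compounds giving half or more protection of infected cells from virus-caused growth loss, again on retest; inactive = the rest.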
Tested on: CEM cells HIV-1 protection, formazan growth assay
Assay: NCI AIDS Antiviral Assay
Settings: for IC50: measured here: growth of uninfected CEM cells
Outline: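 CEM (human) cells, HIV-1 infected vs uninfected, 5-point dosing, formazan growth read-out. Retest threshold 50% protection.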

Compound: CC(C)(O)/C=C\P(=O)(O)O
- EC50: > 200 µM
- IC50: > 200 µM

Compound: O=[N+]([O-])C(C(Cl)=C(Cl)Cl)=C(N1CCOCC1)N1CCOCC1
- EC50: > 200 µM
- IC50: 123 µM

Compound: NS(=O)(=O)c1ccc(NC(=O)/C=C\C(=O)O)cc1
- EC50: > 200 µM
- IC50: > 200 µM

Compound: Cn1cc(NC(=O)[C@H]2CCC(N)=N2)cc1C(=O)NCCC(=N)N
- outcome: inactive

Compound: O=C1Oc2ccccc2CC1C(=O)c1ccc([N+](=O)[O-])cc1 (stereo not given)
- EC50: > 63.1 µM
- IC50: 52.5 µM

Compound: COCCOCCOCCOCCOCCOCCOCCOCCOCCOCCOCCOCCOCCOCCOCCOCCOCC(=O)N(CCn1ccc(NC(c2ccccc2)(c2ccccc2)c2ccccc2)nc1=O)CCn1cnc2nc(NC(=O)c3ccccc3)[nH]c(=O)c21
- EC50: > 170 µM
- IC50: 85.1 µM

Compound: O=Nc1c(O)ccc2ccccc12.O=Nc1c(O)ccc2ccccc12.O=Nc1c([O-])ccc2ccccc12.[Fe+3]
- EC50: > 129 µM
- IC50: 95.5 µM

Compound: CCOC(=O)/C(=C/c1cn(C(C)=O)c2ccccc12)P(=O)(OC)OC
- EC50: > 200 µM
- IC50: 72.4 µM

Compound: COC(=O)c1cc(O)ccc1NC(=O)c1ccc(O)cc1
- EC50: > 912 µM
- IC50: 363 µM

Compound: C[n+]1c(-c2ccc(NC(=O)c3ccc(C(=O)Nc4ccc(-c5cn6ccccc6[n+]5C)cc4)cc3)cc2)cn2ccccc21
- EC50: > 2.63 µM
- IC50: 1.66 µM

Compound: CCCCNC(=S)SSSC(=S)NCCCC
- EC50: > 200 µM
- IC50: 2.75 µM

Compound: COc1ccc(-c2oc3c(Cl)cc(Cl)cc3c(=O)c2O)cc1OC
- EC50: > 200 µM
- IC50: > 200 µM

Compound: COc1ccc(/C(Cl)=C/c2cc(OC)ccc2OC)cc1
- EC50: > 200 µM
- IC50: 13.5 µM

Compound: O=C(O)c1nc2cc(C(F)(F)F)ccc2nc1Nc1ccc(F)cc1
- EC50: > 200 µM
- IC50: 7.76 µM

Compound: COC(=O)c1ccc2cc(O)ccc2c1
- EC50: > 200 µM
- IC50: 83.2 µM

Compound: Cc1ncc2c(c1O)COC2=O
- EC50: > 1510 µM
- IC50: > 1510 µM

Compound: Cc1ccc(S(=O)(=O)N/N=C/C2(c3ccccc3)c3ccccc3-c3ccccc32)cc1
- EC50: > 200 µM
- IC50: 11.2 µM

Compound: C/C(=N/NC(=S)N(C)C)c1ccccc1O
- EC50: > 200 µM
- IC50: 11.7 µM

Compound: CC(=O)Nc1ccc(-c2nnc(SCC(=O)Nc3ccc([N+](=O)[O-])cc3)o2)cc1
- EC50: > 45.7 µM
- IC50: 7.94 µM

Compound: COc1cc2c(c3oc(=O)ccc13)[C@@H](OC(=O)C13CCC(C)(C(=O)O1)C3(C)C)[C@@H](OC(=O)C13CCC(C)(C(=O)O1)C3(C)C)C(C)(C)O2 (stereo not given in full)
- EC50: 0.324 µM
- IC50: > 200 µM

Compound: COC(=O)C12CCC(C(=O)OC)(CC1)n1c(=O)n(-c3ccccc3)c(=O)n12
- EC50: > 200 µM
- IC50: > 200 µM

Compound: Oc1c(N2CCCCC2)cc(-c2cc(N3CCCCC3)c(O)c3ccccc23)c2ccccc12
- EC50: > 200 µM
- IC50: 30.2 µM

Compound: COc1cccc(N2C(=O)CC(Sc3ccccc3N)C2=O)c1 (stereo not given)
- EC50: > 200 µM
- IC50: > 200 µM

Compound: CCCCCCCCNC(=O)C1=C(C)NC(C)=C(C(=O)NCCCCCCCC)C1
- EC50: > 200 µM
- IC50: 97.7 µM

Compound: CSC1NC(c2ccc(Cl)cc2)=C(C#N)C(=O)N1C1OCC(OC(C)=O)C(OC(C)=O)C1OC(C)=O (stereo not given)
- EC50: > 200 µM
- IC50: 30.9 µM

Compound: COc1ccc(C[C@H](N)C(=O)N2C[C@@H](CO)C[C@@H](n3ccc(=O)[nH]c3=O)C2)cc1
- EC50: > 309 µM
- IC50: > 309 µM

Compound: CC#CC(O)(C(=O)OC1CC2CCC(C1)N2C)C1CCCC1 (stereo not given)
- EC50: > 200 µM
- IC50: > 200 µM

Compound: C/C(CC(=O)Nc1ccccc1)=N\NC(N)=S
- EC50: > 1000 µM
- IC50: 170 µM

Compound: O=C(c1ccccc1)N(CCCCNC(=O)C(F)(F)F)CCCNC(=O)C(F)(F)F
- EC50: > 200 µM
- IC50: > 200 µM

Compound: O=S1(=O)C2CCCCC2(N2CCOCC2)C1c1ccccc1 (stereo not given)
- EC50: > 407 µM
- IC50: 45.7 µM

Compound: c1ccc(-c2[o+]c(-c3ccccc3)c(-c3ccccc3)c(-c3ccccc3)c2-c2ccccc2)cc1
- outcome: inactive

Compound: CC[C@]12CN3CCc4c([nH]c5ccccc45)[C@@](C(=O)OC)(c4cc5c(cc4OC)N(C)[C@H]4[C@@](O)(C(=O)OC)[C@H](OC(C)=O)[C@]6(CC)C=CCN7CC[C@]54[C@@H]76)CC(C3)[C@H]1O2 (stereo not given in full)
- EC50: > 2 µM
- IC50: 0.141 µM and 0.0447 µM

Compound: CN(C)CCSc1cc(-c2ccccc2)c2ccccc2n1
- EC50: > 200 µM
- IC50: 6.31 µM

Compound: O=C1NC(=O)C(=Cc2ccccc2)C(=O)N1
- EC50: > 166 µM
- IC50: > 166 µM

Compound: OCC1OC(n2cnc3c(Cl)ncnc32)C(O)C1O (stereo not given)
- outcome: inactive

Compound: O=S(Nc1ccccc1)c1ccccc1Oc1ccccc1 (stereo not given)
- outcome: inactive

Compound: CCC(C)C(=Nc1ccc(Cl)c(Cl)c1)N(C)C (stereo not given)
- outcome: inactive

Compound: N#C/C=C/c1cccc(Cl)c1
- EC50: > 60.3 µM
- IC50: > 60.3 µM

Compound: COc1ccc2[nH]c(=O)c(C(C)=O)c(O)c2c1
- EC50: > 200 µM
- IC50: > 200 µM

Compound: COc1cc(C2C3=C(N=C4SC(C(C)=O)=C(C)N42)c2ccccc2CC3)cc(OC)c1OC (stereo not given)
- EC50: > 200 µM
- IC50: 40.7 µM

Compound: COC(=O)C(=O)C(C(=O)C(=O)Nc1ccc(C)cc1)c1nc2ccc(C(=O)c3ccccc3)cc2[nH]c1=O (stereo not given)
- EC50: > 26.3 µM
- IC50: > 26.3 µM

Compound: CN(CCN(C)C(=O)CCn1ccc(=O)[nH]c1=O)C(=O)CCn1ccc(=O)[nH]c1=O
- EC50: > 32.4 µM
- IC50: > 32.4 µM

Compound: Cc1ccnc(NC(=O)NC2CCCCC2)c1
- EC50: > 200 µM
- IC50: 145 µM

Compound: N#Cc1c(N2CCCC2)ncn(Cc2ccccc2)c1=S
- EC50: > 200 µM
- IC50: > 200 µM

Compound: Cn1c2ccccc2c(=Nc2ccc(S(N)(=O)=O)cc2)c2ccccc21
- outcome: inactive

Compound: Cc1c(C(=O)O)cc2n(c1=O)Cc1cc3ccccc3nc1-2
- EC50: > 10 µM
- IC50: > 10 µM

Compound: CCOC(=O)[C@@]1(C(C)=O)CC(C)=C(C)C[S@]1=O
- EC50: > 200 µM
- IC50: > 200 µM

Compound: CC1(C)C=Cc2c(ccc3c(=O)c(-c4ccccc4)coc23)O1
- EC50: > 100 µM
- IC50: > 100 µM

Compound: C1=C(c2ccccc2)O[C@H](COCc2ccccc2)C(OCc2ccccc2)[C@@H]1OCc1ccccc1 (stereo not given in full)
- outcome: inactive

Compound: ClC(c1ccccc1)(c1ccccc1)c1cccc(-c2cccc(C(Cl)(c3ccccc3)c3ccccc3)c2)c1
- outcome: inactive

Compound: Clc1cc(Cl)c2nncc(N3CC3)c2c1
- outcome: inactive

Compound: O=c1[nH]c(=O)n(C2OC(CO)CC2F)cc1Cl (stereo not given)
- EC50: > 186 µM
- IC50: > 186 µM

Compound: Cc1nc2ccccc2c(=O)n1NC(=S)Nc1ccccc1
- EC50: > 115 µM
- IC50: 107 µM

Compound: Cc1ccc(S(=O)(=O)NC(CCC(=O)NNc2ccccc2)C(=O)NNc2ccccc2)cc1 (stereo not given)
- EC50: > 200 µM

Compound: C=CCOc1ccc(C2(O)c3ccccc3C3=NCCCN32)cc1 (stereo not given)
- EC50: > 200 µM
- IC50: 148 µM

Compound: CC(Br)(c1ccccc1)[P+](c1ccccc1)(c1ccccc1)c1ccccc1 (stereo not given)
- EC50: > 20 µM
- IC50: 0.871 µM

Compound: COc1ccc(-c2sc(/N=C/c3ccc(N(C)CCC#N)cc3)c(C#N)c2C)cc1OC
- EC50: > 501 µM
- IC50: 339 µM

Compound: CCOC1OC(c2ccccc2)=NS(=O)(=O)C1(C)C (stereo not given)
- EC50: > 891 µM
- IC50: 513 µM

Compound: N#Cc1c(-c2ccccc2)c(-c2ccccc2)nn(CC(=O)O)c1=O
- EC50: > 759 µM
- IC50: 47.9 µM

Compound: CC(C)(C)c1cc(C(O)(C(=O)O)C(=O)O)cc(C(C)(C)C)c1O
- EC50: > 200 µM
- IC50: > 200 µM

Compound: COc1ccc2c(c1)CCC1=C2CCC(=O)C1C (stereo not given) (tested in a mixture with another compound)
- EC50: > 200 µM
- IC50: 7.94 µM

Compound: O=c1[nH]c(=O)n(COCc2ccccc2)c2ccsc12
- outcome: inactive

Compound: Cn1c(=O)c2c(ncn2CCNC(CO)C(O)c2ccc([N+](=O)[O-])cc2)n(C)c1=O (stereo not given)
- EC50: > 200 µM
- IC50: > 200 µM

Compound: O=C1[C@@H]2[C@@H](c3ccccc3)[C@]2(Cl)C(=O)[C@H]2[C@H](c3ccccc3)[C@@]12Cl
- outcome: inactive

Compound: NNC(=O)c1ccncc1
- EC50: > 200 µM
- IC50: > 200 µM

Compound: CCOC(=O)Nc1nc2ccccc2[nH]1
- EC50: > 200 µM
- IC50: 11.2 µM

Compound: CN(Cc1cnc2nc(N)nc(N)c2n1)c1ccc(C(=O)NC(CCC(=O)O)C(=O)O)c2ccccc12 (stereo not given)
- EC50: > 0.2 µM
- IC50: 0.00219 µM

Compound: CCOC(=O)n1[nH]c(=O)n(-c2ccccc2)c1=O
- EC50: > 200 µM
- IC50: > 200 µM

Compound: Cc1c2c(oc(=O)c1NC(=O)c1ccccc1)CCCCCC2
- EC50: > 200 µM
- IC50: > 200 µM

Compound: CCCCN(CCCC)CC(C(=O)Nc1ccc([N+](=O)[O-])cc1[N+](=O)[O-])/C(C)=N\NC(=O)c1ccncc1 (stereo not given)
- EC50: > 56.2 µM
- IC50: > 56.2 µM

Compound: N#Cc1cccc(C=C2C(=O)c3ccccc3C2=O)c1
- EC50: > 36.3 µM
- IC50: > 36.3 µM

Compound: CC(=O)[C@H]1CCC2[C@@H]3CC=C4C[C@@H](OC5OC(COS(=O)(=O)O)C(O)C(O)C5O)CC[C@]4(C)C3CC[C@@]21C (stereo not given in full)
- EC50: > 38 µM
- IC50: > 38 µM

Compound: COc1ccc(C2CC(c3ccccc3)=Nc3ccccc3S2)cc1OC (stereo not given)
- EC50: > 39.8 µM
- IC50: 8.51 µM

Compound: CCC1(CC(=O)N(C)C)C=CCN(C(=O)Oc2ccccc2)C1 (stereo not given)
- EC50: > 58.9 µM
- IC50: > 58.9 µM

Compound: COC(=O)c1nc2[nH]n(-c3ccccc3)c(=O)c2c2c1CCCCCCCCCC2
- EC50: > 123 µM
- IC50: 115 µM

Compound: O=C1C=CC(=O)c2c1ccc1c3ccccc3n(Cc3cccc([N+](=O)[O-])c3)c21
- EC50: > 200 µM
- IC50: 1.35 µM

Compound: CC1=NN(C(=O)CC(=O)Nc2ccccc2Cl)C(=O)C1N=Nc1ccc(S(=O)(=O)c2ccc(N=NC3C(=O)N(C(=O)CC(=O)Nc4ccccc4Cl)N=C3C)cc2)cc1 (stereo not given)
- EC50: > 100 µM
- IC50: > 100 µM

Compound: COc1ccc2c(c1)OC[C@@H]1c3cc(O)c(OCc4ccccc4)cc3O[C@]21C
- EC50: > 200 µM
- IC50: 24 µM

Compound: O=C(NCCCCNCCCNC(=O)c1cc(-c2ccccc2)nc2ccccc12)c1cc(-c2ccccc2)nc2ccccc12
- EC50: > 20 µM
- IC50: 3.16 µM

Compound: COC1=C(C)C2CC(=O)OC3CC4C(C)CC(O)C(=O)[C@]4(C)C(C1=O)[C@@]32C (stereo not given in full)
- outcome: inactive

Compound: Cc1cc(C)nc(NC(=S)Nc2cccc(Cl)c2)c1
- EC50: > 200 µM
- IC50: 27.5 µM

Compound: O=C(C=P(c1ccccc1)(c1ccccc1)c1ccccc1)C1(C(=O)C=P(c2ccccc2)(c2ccccc2)c2ccccc2)CC1
- EC50: > 200 µM
- IC50: 9.55 µM

Compound: CC1(C)CNC[C@@](C)(OCCO)C(=O)[N-]C(C)(C)CNC[C@@](C)(OCCO)C(=O)[N-]1.[Ni+2]
- EC50: > 200 µM
- IC50: > 200 µM

Compound: CCCCCCCCCCCC(=O)OCC(O)CO (stereo not given)
- EC50: > 100 µM
- IC50: 51.3 µM

— PubChem BioAssay AID179 (DTP/NCI, 2004)
